The test system of the assay is M. tuberculosis PE-003 multidrug-resistant clinical isolate. Briefly: microbe, parasite or virus in culture. It is filed as cell-based. As to conditions: Mycobacterium tuberculosis, read-out: MIC PE-003 in μM.

In brackets after ≈: the same amount, converted by molar mass.

Take `Cc1ccccc1OCc1nc(-c2ccc(NC(=O)c3cccs3)cc2)no1` [Labio_16]: the MIC came out at 1.5 µM (≈ 0.587 µg/mL).
With `CCOC(=O)c1ccc2nc(C)cc(Nc3ccc(N4CCCCC4)cc3)c2c1` [Labio_17], the MIC came to 2.5 µM (≈ 0.974 µg/mL).

The record behind these values is PMC5402281, “Functional, thermodynamics, structural and biological studies of in silico-identified inhibitors of Mycobacterium tuberculosis enoyl-ACP(CoA) reductase enzyme” (Scientific Reports, 2017).
